Source: patent US20240101531A1, “PYRIDINAMINE DERIVATIVES AND THEIR USE AS POTASSIUM CHANNEL MODULATORS” (Xenon Pharmaceuticals Inc., priority 2022, published 2024)

Target: human KV7.2/KV7.3 (Homo sapiens (Human), UniProt O43525+O43526)
Test: Potassium flux assay (IPG-2 AM dye)
Type: cell-based
Conditions: TREX HEK 293 or HEK 293 cells expressing human KV7.2/KV7.3; arithmetic mean values
Method in brief: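 EC50 from 16 concentrations (2-fold dilutions, top 30 μM), scaled between DMSO baseline and a known KV7.x modulator maximum. Signal is IPG-2 AM fluorescence (ex 530/em 558 nm) after 10 mM KCl challenge buffer addition, following 20 min room-temperature compound exposure of HEK 293 or TREX HEK 293 cells stably expressing human KV7.2/KV7.3.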

SMILES | EC50 [µM]
Clc1ccc(Nc2nccc3cc(OC4CC5CCC(C4)N5Cc4ccccc4)ccc23)cn1 (centres unmarked) [Example 97, 6-((8-benzyl-8-azabicyclo[3.2.1]octan-3-yl)oxy)-N-(6-chloropyridin-3-yl)isoquinolin-1-amine] | 10 to 30
CC1(CCOc2ccc3c(Nc4ccc(Cl)nc4)nccc3c2)COC1 [Example 98, N-(6-chloropyridin-3-yl)-6-(2-(3-methyloxetan-3-yl)ethoxy)isoquinolin-1-amine] | 1 to 10
Cn1cc(CCOc2ccc3c(Nc4ccc(Cl)nc4)nccc3c2)cn1 [Example 99, N-(6-chloropyridin-3-yl)-6-(2-(1-methyl-1H-pyrazol-4-yl)ethoxy)isoquinolin-1-amine] | 1 to 10
O[C@H]1CC[C@@H](Oc2ccc3c(Nc4ccc(Cl)nc4)nccc3c2)CC1 [Example 100, Cis-4-((1-((6-chloropyridin-3-yl)amino)isoquinolin-6-yl)oxy)cyclohexan-1-ol] | < 1
CC(C)(COc1ccc2c(Nc3ccc(Cl)nc3)nccc2c1)N1CCOCC1 [Example 101, N-(6-chloropyridin-3-yl)-6-(2-methyl-2-morpholinopropoxy)isoquinolin-1-amine] | 1 to 10
CO[C@H]1CC[C@@H](Oc2ccc3c(Nc4ccc(Cl)nc4)nccc3c2)CC1 [Example 104, N-(6-chloropyridin-3-yl)-6-(((1s,4s)-4-methoxycyclohexyl)oxy)isoquinolin-1-amine] | 10 to 30
CO[C@H]1CC[C@H](Oc2ccc3c(Nc4ccc(Cl)nc4)nccc3c2)CC1 [Example 105, N-(6-chloropyridin-3-yl)-6-(((1r,4r)-4-methoxycyclohexyl)oxy)isoquinolin-1-amine] | 10 to 30
CC(Cc1cccnc1)Oc1ccc2c(Nc3ccc(Cl)nc3)nccc2c1 (centres unmarked) [Example 106, N-(6-chloropyridin-3-yl)-6-((1-(pyridin-3-yl)propan-2-yl)oxy)isoquinolin-1-amine] | 1 to 10
O=C1OCCN1CCOc1ccc2c(Nc3ccc(Cl)nc3)nccc2c1 [Example 107, 3-(2-((1-((6-chloropyridin-3-yl)amino)isoquinolin-6-yl)oxy)ethyl)oxazolidin-2-one] | 1 to 10
Clc1ccc(Nc2nccc3cc(O[C@@H]4CCCN(Cc5ccccc5)C4)ccc23)cn1 [Example 108, (R)-6-((1-benzylpiperidin-3-yl)oxy)-N-(6-chloropyridin-3-yl)isoquinolin-1-amine] | 1 to 10
CC(CN1CCOCC1)Oc1ccc2c(Nc3ccc(Cl)nc3)nccc2c1 (centres unmarked) [Example 109, N-(6-chloropyridin-3-yl)-6-((1-morpholinopropan-2-yl)oxy)isoquinolin-1-amine] | 1 to 10
CCOC(=O)C1(COc2ccc3c(Nc4ccc(Cl)nc4)nccc3c2)CC1 [Example 110, ethyl 1-(((1-((6-chloropyridin-3-yl)amino)isoquinolin-6-yl)oxy)methyl)cyclopropane-1-carboxylate] | 1 to 10
CC(=O)N1CC[C@H](Oc2ccc3c(Nc4ccc(Cl)nc4)nccc3c2)C1 [Example 111, (S)-1-(3-((1-((6-chloropyridin-3-yl)amino)isoquinolin-6-yl)oxy)pyrrolidin-1-yl)ethan-1-one] | 1 to 10
CC(=O)N1CC[C@@H](Oc2ccc3c(Nc4ccc(Cl)nc4)nccc3c2)C1 [Example 112, (R)-1-(3-((1-((6-chloropyridin-3-yl)amino)isoquinolin-6-yl)oxy)pyrrolidin-1-yl)ethan-1-one] | 1 to 10
Clc1ccc(Nc2nccc3cc(OC4CC5(COC5)C4)ccc23)cn1 [Example 113, 6-((2-oxaspiro[3.3]heptan-6-yl)oxy)-N-(6-chloropyridin-3-yl)isoquinolin-1-amine] | < 1
Clc1ccc(Nc2nccc3cc(OCC4CC5(CCO5)C4)ccc23)cn1 (centres unmarked) [Example 114, 6-((1-oxaspiro[3.3]heptan-6-yl)methoxy)-N-(6-chloropyridin-3-yl)isoquinolin-1-amine] | < 1
Clc1ccc(Nc2nccc3cc(OCC45CCCN4CCC5)ccc23)cn1 [Example 115, N-(6-chloropyridin-3-yl)-6-((tetrahydro-1H-pyrrolizin-7a(5H)-yl)methoxy)isoquinolin-1-amine] | ≥ 30
FC1CN(CCOc2ccc3c(Nc4ccc(Cl)nc4)nccc3c2)C1 [Example 116, N-(6-chloropyridin-3-yl)-6-(2-(3-fluoroazetidin-1-yl)ethoxy)isoquinolin-1-amine] | 1 to 10
Clc1ccc(Nc2nccc3cc(OCc4cnn(C5COC5)c4)ccc23)cn1 [Example 117, N-(6-chloropyridin-3-yl)-6-((1-(oxetan-3-yl)-1H-pyrazol-4-yl)methoxy)isoquinolin-1-amine] | < 1
CS(=O)(=O)N1CCC(Oc2ccc3c(Nc4ccc(Cl)nc4)nccc3c2)CC1 [Example 118, N-(6-chloropyridin-3-yl)-6-((1-(methylsulfonyl)piperidin-4-yl)oxy)isoquinolin-1-amine] | 1 to 10
COCCN1CCC(Oc2ccc3c(Nc4ccc(Cl)nc4)nccc3c2)CC1 [Example 119, N-(6-chloropyridin-3-yl)-6-((1-(2-methoxyethyl)piperidin-4-yl)oxy)isoquinolin-1-amine] | 10 to 30
Clc1ccc(Nc2nccc3cc(OCCn4cccn4)ccc23)cn1 [Example 120, 6-(2-(1H-pyrazol-1-yl)ethoxy)-N-(6-chloropyridin-3-yl)isoquinolin-1-amine] | 10 to 30

The remaining lines, values ahead:

EC50 [µM] | SMILES
1 to 10 | O=C(C1CC1)N1CCC(Oc2ccc3c(Nc4ccc(Cl)nc4)nccc3c2)CC1 [Example 121, (4-((1-((6-chloropyridin-3-yl)amino)isoquinolin-6-yl)oxy)piperidin-1-yl)(cyclopropyl)methanone]
1 to 10 | CC(=O)N1CCC[C@H](Oc2ccc3c(Nc4ccc(Cl)nc4)nccc3c2)C1 [Example 122, (S)-1-(3-((1-((6-chloropyridin-3-yl)amino)isoquinolin-6-yl)oxy)piperidin-1-yl)ethan-1-one]
< 1 | CC(=O)N1CCC[C@@H](Oc2ccc3c(Nc4ccc(Cl)nc4)nccc3c2)C1 [Example 123, (R)-1-(3-((1-((6-chloropyridin-3-yl)amino)isoquinolin-6-yl)oxy)piperidin-1-yl)ethan-1-one]
< 1 | Cc1ncc(Nc2nccc3cc(OCC4(C#N)CC4)ccc23)cn1 [Example 127, 1-(((1-((2-methylpyrimidin-5-yl)amino)isoquinolin-6-yl)oxy)methyl)cyclopropane-1-carbonitrile]
10 to 30 | CN1CC(F)(COc2ccc3c(Nc4ccc(Cl)nc4)nccc3c2)C1 [Example 128, N-(6-chloropyridin-3-yl)-6-((3-fluoro-1-methylazetidin-3-yl)methoxy)isoquinolin-1-amine]
1 to 10 | OCc1ncc(Nc2nccc3cc(OCC4(F)CC4)ccc23)cn1 [Example 129, (5-((6-((1-fluorocyclopropyl)methoxy)isoquinolin-1-yl)amino)pyrimidin-2-yl)methanol]
10 to 30 | CC[C@@H](OC)c1ccc2c(Nc3ccc(Cl)nc3)nccc2c1 [Example 130, (R)—N-(6-chloropyridin-3-yl)-6-(1-methoxypropyl)isoquinolin-1-amine]
≥ 30 | CC[C@H](OC)c1ccc2c(Nc3ccc(Cl)nc3)nccc2c1 [Example 131, (S)—N-(6-chloropyridin-3-yl)-6-(1-methoxypropyl)isoquinolin-1-amine]
10 to 30 | CO[C@H](C)c1ccc2c(Nc3ccc(Cl)nc3)nccc2c1 [Example 132, (R)-N-(6-chloropyridin-3-yl)-6-(1-methoxyethyl)isoquinolin-1-amine]
10 to 30 | CO[C@@H](C)c1ccc2c(Nc3ccc(Cl)nc3)nccc2c1 [Example 133, (S)-N-(6-chloropyridin-3-yl)-6-(1-methoxyethyl)isoquinolin-1-amine]
< 1 | N#CCC1(COc2ccc3c(Nc4ccc(Cl)nc4)nccc3c2)COC1 [Example 134, 2-(3-(((1-((6-chloropyridin-3-yl)amino)isoquinolin-6-yl)oxy)methyl)oxetan-3-yl)acetonitrile]
< 1 | Clc1ccc(Nc2nccc3cc(O[C@H]4CCC5(COC5)C4)ccc23)cn1 [Example 135, (S)-6-((2-oxaspiro[3.4]octan-6-yl)oxy)-N-(6-chloropyridin-3-yl)isoquinolin-1-amine]
1 to 10 | C#CC(C)(C)COc1ccc2c(Nc3ccc(Cl)nc3)nccc2c1 [Example 136, N-(6-chloropyridin-3-yl)-6-((2,2-dimethylbut-3-yn-1-yl)oxy)isoquinolin-1-amine]
< 1 | Clc1ccc(Nc2nccc3cc(OCC4(C5CC5)CC4)ccc23)cn1 [Example 137, 6-([1,1′-bi(cyclopropan)]-1-ylmethoxy)-N-(6-chloropyridin-3-yl)isoquinolin-1-amine]
< 1 | Clc1ccc(Nc2nccc3cc(O[C@@H]4CCC5(COC5)C4)ccc23)cn1 [Example 138, (R)-6-((2-oxaspiro[3.4]octan-6-yl)oxy)-N-(6-chloropyridin-3-yl)isoquinolin-1-amine]
1 to 10 | C[C@@H](Oc1ccc2c(Nc3ccc(Cl)nc3)nccc2c1)C1(F)CC1 [Example 139, (R)-N-(6-chloropyridin-3-yl)-6-(1-(1-fluorocyclopropyl)ethoxy)isoquinolin-1-amine]
< 1 | C[C@H](Oc1ccc2c(Nc3ccc(Cl)nc3)nccc2c1)C1(F)CC1 [Example 140, (S)-N-(6-chloropyridin-3-yl)-6-(1-(1-fluorocyclopropyl)ethoxy)isoquinolin-1-amine]
1 to 10 | FC1(COc2ccc3c(Nc4ccc(Cl)nc4)nccc3c2)CCC1 [Example 141, N-(6-chloropyridin-3-yl)-6-((1-fluorocyclobutyl)methoxy)isoquinolin-1-amine]
≥ 30 | CN(c1cnc(Cl)nc1)c1nccc2cc(OCC3(F)CC3)ccc12 [Example 144, N-(2-chloropyrimidin-5-yl)-6-((1-fluorocyclopropyl)methoxy)-N-methylisoquinolin-1-amine]
